Measurements taken from patent US10517867B2, “Posaconazole derivative, pharmaceutical composition and use thereof” (priority 2016, dated 2019).
Read-outs that look alike come from different tables or passages of the source.

Assays:
[1] = test system: Aspergillus Fumigutus (AF) strains; experiment: Aspergillus fumigatus keratitis in rats, intravenous administration; details: 10 mg/kg tail vein once daily for 5 days; mean ± SD of 10 rats
[2] = Solid stability test (stability chamber, HPLC total impurity); assay type: physicochemical; details: solid, packaged, 25° C.±2° C., relative humidity 60%±2%
[3] = test system: Candida albicans ATCC10231; experiment: Systemic fungal infection in mice, intravenous administration; assay type: in vivo, ICR mice
[4] = test system: Candida albicans ATCC10231; experiment: Systemic fungal infection in mice, intragastric administration; assay type: in vivo, ICR mice; details: for responders at 20 mg/kg: Candida albicans, ATCC10231, po
[5] = Determination of solubility in deionized water (HPLC, external standard); details: for Solubility: 25±2° C., after 30 min; for solubility at 30 min: 25 °C, water, thermodynamic from solid
[6] = test system: Candida albicans ATCC10231; experiment: Candida albicans vaginitis in mice, intravenous administration; details: logarithm of the CFU values, mean ± SD of 20 mice; for vaginal fungal load of mice, day 5: 20 mg/kg tail vein once a day for 5 days, day 5 after infection; for vaginal fungal load of mice, day 3: 20 mg/kg tail vein once a day, day 3 after infection
Protocol: KM mice, weighing 18-22 g, female, provided by Hubei Experimental Animal Center.
The standard strain of Candida albicans was purchased from the American Type Culture
Collection, strain number ATCC10231.
Prior to being infected with Candida albicans, animals in each group were given subcutaneous injections of 0.5 ml of estradiol benzoate (2 mg/ml) for 6 consecutive days to allow them to enter the estrus phase. Injections were continued once every 2 days until the completion of the experiment. After 6 days, 20 μl of Candida albicans solution in a concentration of 3.5×10^6 CFU/ml was injected vaginally into each mouse, causing a vaginal infection model. From the first day after infection, each group of animals was given 20 mg/kg of the corresponding drug (calculated as posaconazole) in the tail vein at an administration volume of 0.1 ml/10 g once a day for 5 consecutive days. The model group was given an equal volume of solvent (physiological saline). On the 3rd and 5th days after infection, the vagina of mice were wiped with sterile cotton swabs. The cotton swabs were soaked in 0.9 ml physiological saline. The fungal solutions were diluted to 10-fold increments to give a series of concentrations, and then 100 μl of each concentration of the bacteria solutions was taken and inoculated on Sabourand's dextrose agar solid medium containing 0.5% (W/V) chloramphenicol to observe the fungal load of Candida albicans on the vagina.

[7] = test system: Candida albicans ATCC10231; experiment: Candida albicans vaginitis in mice, intragastric administration; assay type: in vivo, KM mice; details: logarithm of the CFU values, mean ± SD of 20 mice, 20 mg/kg intragastric once a day
[8] = test system: Aspergillus fumigatus AF293; experiment: Lung Aspergillus fumigatus infection in immunosuppressed mice, intravenous administration; details: for responders at 20 mg/kg: Aspergillus fumigatus, AF293, in Mus musculus, iv; for lung fungal load: mouse lung tissue, seven days later, 20 mg/kg tail vein once daily for 5 days, mean ± SD
[9] = In vitro metabolic stability in human intestine S9; assay type: in vitro ADME; details: 37° C., 10 μM compound, 1 mg/mL S9, NADPH regeneration system
Summary of the method: (§1)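 Human or rat plasma, preincubated 5 min at 37 °C, or intestinal S9 at 37 °C, spiked from 1 mM stock; triplicates sampled at 1, 2, 5, 15 and 30 min into cold internal standard. HPLC quantitation; half-life by non-compartmental analysis.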

[10] = In vitro metabolic stability in rat intestine S9; assay type: in vitro ADME; details: 37° C., 10 μM compound, 1 mg/mL S9, NADPH regeneration system
Summary of the method: as §1

[11] = Pharmacokinetics after single intragastric administration to rats; assay type: in vivo, SD rats; details: plasma posaconazole, 2.5 mg/kg (calculated as posaconazole)
Protocol: Administration amount: 2.5 mg/kg (calculated as posaconazole)
Administration volume: 10 ml/kg
Drug concentration: 0.25 mg/mL
Administration vehicle: the positive drug posaconazole group used CMC—Na, while other groups used normal saline (physiological saline)
Administration route: intragastric administration
Experimental animals: SD rats, SPF grade, weighing 180-220 g, equal amount of male and female. Rats were randomly divided into groups of 6 with 3 males and 3 females.
Experimental protocol: after oral intragastric administration, blood samples were collected at different time points to determine the concentration of posaconazole in the plasma and the pharmacokinetic parameters of posaconazole were obtained.

[12] = In vitro metabolic stability in human plasma; assay type: in vitro ADME; details: 37° C., 10 μM compound, metabolic half-life
Summary of the method: as §1

[13] = In vitro metabolic stability in rat plasma; assay type: in vitro ADME; details: 37° C., 10 μM compound, metabolic half-life
Summary of the method: as §1

[14] = 24 h, read-out: survival rate of mice, day 1
[15] = 48 h, read-out: survival rate of mice, day 2
[16] = 72 h, read-out: survival rate of mice, day 3
[17] = 96 h, read-out: survival rate of mice, day 4
[18] = 120 h, read-out: survival rate of mice, day 5
[19] = 144 h, read-out: survival rate of mice, day 6
[20] = 168 h, read-out: survival rate of mice, day 7
[21] = 24 h, read-out: survival rate of mice, day 1, 20 mg/kg intragastric once daily for 5 days, day 1
[22] = 48 h, read-out: survival rate of mice, day 2, 20 mg/kg intragastric once daily for 5 days, day 2
[23] = 72 h, read-out: survival rate of mice, day 3, 20 mg/kg intragastric once daily for 5 days, day 3
[24] = 96 h, read-out: survival rate of mice, day 4, 20 mg/kg intragastric once daily for 5 days, day 4
[25] = 120 h, read-out: survival rate of mice, day 5, 20 mg/kg intragastric once daily for 5 days, day 5
[26] = 144 h, read-out: survival rate of mice, day 6, 20 mg/kg intragastric once daily for 5 days, day 6
[27] = 168 h, read-out: survival rate of mice, day 7, 20 mg/kg intragastric once daily for 5 days, day 7
[28] = 24 h, read-out: survival rate of mice, day 1, 20 mg/kg tail vein once daily for 5 days, day 1
[29] = 48 h, read-out: survival rate of mice, day 2, 20 mg/kg tail vein once daily for 5 days, day 2
[30] = 72 h, read-out: survival rate of mice, day 3, 20 mg/kg tail vein once daily for 5 days, day 3
[31] = 96 h, read-out: survival rate of mice, day 4, 20 mg/kg tail vein once daily for 5 days, day 4
[32] = 120 h, read-out: survival rate of mice, day 5, 20 mg/kg tail vein once daily for 5 days, day 5
[33] = 144 h, read-out: survival rate of mice, day 6, 20 mg/kg tail vein once daily for 5 days, day 6
[34] = 168 h, read-out: survival rate of mice, day 7, 20 mg/kg tail vein once daily for 5 days, day 7

SMILES	Amount of active fungi in cornea at day 7 [1]	Total impurity increment in 30 days [2]	responders at 20 mg/kg [3, 14]	responders at 20 mg/kg [3, 15]	responders at 20 mg/kg [3, 16]	responders at 20 mg/kg [3, 17]	responders at 20 mg/kg [4, 21]	responders at 20 mg/kg [4, 22]	responders at 20 mg/kg [4, 23]	responders at 20 mg/kg [4, 24]	responders at 20 mg/kg [4, 25]	responders at 20 mg/kg [4, 26]	responders at 20 mg/kg [4, 27]	responders at 20 mg/kg [8, 28]	responders at 20 mg/kg [8, 29]	responders at 20 mg/kg [8, 30]	responders at 20 mg/kg [8, 31]	responders at 20 mg/kg [8, 32]	responders at 20 mg/kg [8, 33]	responders at 20 mg/kg [8, 34]	further results
CC[C@@H]([C@H](C)O)n1ncn(-c2ccc(N3CCN(c4ccc(OC[C@@H]5CO[C@@](Cn6c[n+](C(C)OC(=O)N(C)c7ncccc7COC(=O)[C@@H](N)CCCN)cn6)(c6ccc(F)cc6F)C5)cc4)CC3)cc2)c1=O (some centres unmarked) [ST0003]	1.48 ± 0.38 10^3 CFU/ml	0.68%	100%	100%	100%	100%	100%	100%	100%	90%	80%	80%	80%	100%	100%	100%	100%	100%	90%	90%	responders at 20 mg/kg [3, 18]: 100%; responders at 20 mg/kg [3, 19]: 100%; responders at 20 mg/kg [3, 20]: 90%; Solubility [5]: >50 mg/mL; vaginal fungal load of mice, day 5 ([6]; 20 mg/kg): 3.85 ± 0.28; vaginal fungal load of mice, day 3 ([6]; 20 mg/kg): 4.11 ± 0.30; vaginal fungal load of mice, day 3 ([7]; 20 mg/kg): 4.23 ± 0.41; vaginal fungal load of mice, day 5 ([7]; 20 mg/kg): 4.05 ± 0.37; vaginal fungal load of mice, day 7 ([7]; 20 mg/kg): 3.28 ± 0.36; vaginal fungal load of mice, day 11 ([7]; 20 mg/kg): 2.47 ± 0.18; lung fungal load ([8]; 20 mg/kg): 1.39 ± 0.32 10^4 CFU/ml
CCC(O[C@@H](C)[C@H](CC)n1ncn(-c2ccc(N3CCN(c4ccc(OC[C@@H]5CO[C@@](Cn6cncn6)(c6ccc(F)cc6F)C5)cc4)CC3)cc2)c1=O)OP(=O)([O-])[O-].[Na+].[Na+] (some centres unmarked) [ST0093]	–	0.91%	–	–	–	–	–	–	–	–	–	–	–	–	–	–	–	–	–	–	Human intestine S9 T1/2 [9]: 61.98 ± 14.26 min; Rat intestine S9 T1/2 [10]: 57.25 ± 12.56 min; survival rate of mice, day 1 ([4]; 20 mg/kg intragastric once daily for 5 days, day 1): 70%; survival rate of mice, day 2 ([4]; 20 mg/kg intragastric once daily for 5 days, day 2): 70%; survival rate of mice, day 3 ([4]; 20 mg/kg intragastric once daily for 5 days, day 3): 60%; survival rate of mice, day 4 ([4]; 20 mg/kg intragastric once daily for 5 days, day 4): 60%; survival rate of mice, day 5 ([4]; 20 mg/kg intragastric once daily for 5 days, day 5): 60%; survival rate of mice, day 6 ([4]; 20 mg/kg intragastric once daily for 5 days, day 6): 60%; survival rate of mice, day 7 ([4]; 20 mg/kg intragastric once daily for 5 days, day 7): 60%; Solubility [5]: 27.9 mg/mL; AUClast [11]: 3056 ± 1265 ng·h/mL; Cmax [11]: 125 ± 58 ng/mL; T1/2 [11]: 746.4 ± 128 min; Human plasma T1/2 [12]: 18.95 ± 2.76 min; Rat plasma T1/2 [13]: 15.69 ± 4.88 min
CC[C@@H]([C@H](C)O)n1ncn(-c2ccc(N3CCN(c4ccc(OC[C@@H]5CO[C@@](Cn6c[n+](C(C)OC(=O)N(C)c7ncccc7COC(=O)[C@@H](N)CCN)cn6)(c6ccc(F)cc6F)C5)cc4)CC3)cc2)c1=O (some centres unmarked) [ST0006]	1.92 ± 0.41 10^3 CFU/ml	–	–	–	–	–	100%	100%	90%	80%	70%	70%	70%	100%	100%	100%	100%	90%	90%	80%	solubility at 30 min [5]: > 50 mg/mL; vaginal fungal load of mice, day 3 [7]: 4.32 ± 0.29; vaginal fungal load of mice, day 5 [7]: 4.18 ± 0.20; vaginal fungal load of mice, day 7 [7]: 3.49 ± 0.54; vaginal fungal load of mice, day 11 [7]: 2.84 ± 0.37; lung fungal load [8]: 1.73 ± 0.34 10^4 CFU/ml
CC[C@@H]([C@H](C)O)n1ncn(-c2ccc(N3CCN(c4ccc(OC[C@@H]5CO[C@@](Cn6c[n+](C(C)OC(=O)N(C)c7ncccc7COC(=O)[C@@H](N)CCCNC(N)=O)cn6)(c6ccc(F)cc6F)C5)cc4)CC3)cc2)c1=O (some centres unmarked) [ST0012]	1.45 ± 0.37 10^3 CFU/ml	–	100%	100%	100%	100%	100%	100%	100%	80%	80%	80%	80%	100%	100%	100%	100%	100%	90%	90%	responders at 20 mg/kg [3, 18]: 100%; responders at 20 mg/kg [3, 19]: 100%; responders at 20 mg/kg [3, 20]: 90%; solubility at 30 min [5]: > 50 mg/mL; vaginal fungal load of mice, day 5 [6]: 3.75 ± 0.26; vaginal fungal load of mice, day 3 [6]: 4.01 ± 0.28; vaginal fungal load of mice, day 3 [7]: 4.17 ± 0.43; vaginal fungal load of mice, day 5 [7]: 4.12 ± 0.35; vaginal fungal load of mice, day 7 [7]: 3.10 ± 0.34; vaginal fungal load of mice, day 11 [7]: 2.42 ± 0.19; lung fungal load [8]: 1.42 ± 0.30 10^4 CFU/ml
CC[C@@H]([C@H](C)O)n1ncn(-c2ccc(N3CCN(c4ccc(OC[C@@H]5CO[C@@](Cn6c[n+](C(C)OC(=O)NCC(=O)[O-])cn6)(c6ccc(F)cc6F)C5)cc4)CC3)cc2)c1=O.[Cl-].[Na+] (some centres unmarked) [ST0019]	–	–	–	–	–	–	–	–	–	–	–	–	–	–	–	–	–	–	–	–	AUClast [11]: 1985 ± 358 ng·h/mL; Cmax [11]: 102 ± 26 ng/mL; T1/2 [11]: 684.6 ± 195 min
